Where two headings read alike, the source gives them in different places.
Columns and labels:
[1] = Accelerated stability evaluation (XRPD and HPLC after storage); assay type: physicochemical; conditions: for Purity (Area %): HPLC; for Form: XRPD; for decrease of HPLC purity: HPLC-DAD, under all three conditions
Description: (§1) XRPD patterns were collected on a PANalytical X-ray powder diffractometer fitted with an automatic sample changer, a theta-theta goniometer, automatic beam divergence slit and a PSD Vantec-1 detector. The X-ray tube voltage and amperage were set to 45 kV and 40 mA respectively. The diffractometer was aligned and a calibration check performed using a corundum reference material on the day of data collection. Data were collected and analyzed by the software Data Viewer.
(§2) Agilent 1260/1100 HPLC was utilized and detailed chromatographic conditions for purity and solubility measurement are listed in Table 5.
To evaluate the physical and chemical stability of Form A of BBR-UDCA and Form D of BBR-UDCA, samples were stored at 80° C. (sealed) for 24 hours, 25° C./60% RH (open) and 40° C./75% RH (open) for one week. […] The physical stability of Form A was better than Form D based on the 1-week stability results at 25° C./60% RH (open) and 40° C./75% RH (open).

[2] = Equilibrium aqueous solubility; assay type: physicochemical
Method: as §2
About 5 mg of each crystal type of solid (Form A of BBR-UDCA and Form D of BBR-UDCA, respectively) was weighed in separate 3-mL bottle, suspended into 1 mL of water, slurried (1000 rpm) at RT for 24 hours, and then centrifuged at 10000 rpm for 3 minutes. The resulting residual solids were characterized by XRPD and supernatant was measured by HPLC-DAD/ELSD. Due to the poor UV absorption of UDCA, DAD was used as the detector only for BBR and ELSD was used for both BBR and UDCA. […] The reason of the deviation from 1:1 may be that after HTD 1801 dissolving in water, a small amount of disproportionation occurred and it was hardly detected by XRPD due to its limited amount.

[3] = Hygroscopicity evaluation by Dynamic Vapor Sorption (DVS); assay type: physicochemical; conditions: for water uptake: DVS
Method: DVS was measured via a SMS (Surface Measurement Systems) DVS Intrinsic.
Dynamic Vapor Sorption (DVS) isotherm plot of Form A of BBR-UDCA was collected at 25° C. with the various humidity, 60% RH-95% RH-0% RH-95% RH (60% RH was the ambient humidity). As the DVS plot shown, a step-like weight loss was observed between 10% RH and 20% RH.
To investigate the hygroscopicity of Form D of BBR-UDCA, DVS isotherm plot of Form D was collected at 25° C. between 0 and 95% RH.

[4] = 1-Month stability evaluation (XRPD and HPLC after storage); assay type: physicochemical; conditions: for Purity (Area %): HPLC; for Crystal Form: XRPD
Description: as §1, §2
Samples of Form A of BBR-UDCA, Form D of BBR-UDCA and BBR-UDCA (mixed crystals without quality control on crystal forms) were stored 25° C./60% RH (sealed) and 40° C./75% RH (sealed) for one month.

[5] = air exposure
[6] = 1 week, 25° C./60% RH (open), * = degree of crystallinity decreased
[7] = 1 week, 40° C./75% RH (open), * = degree of crystallinity decreased
[8] = water, RT, 24 hours, ELSD as detector
[9] = 1 Month, 25° C./60% RH (sealed)
[10] = 1 Month, 40° C./75% RH (sealed)

Compound | Purity/Initial purity (%) ([1]; 1 week, 25° C./60% RH (open)) | Purity (Area %) ([1]; 1 week, 25° C./60% RH (open)) | Form [1, 6] | Purity/Initial purity (%) ([1]; 1 week, 40° C./75% RH (open)) | Purity (Area %) ([1]; 1 week, 40° C./75% RH (open)) | Form [1, 7] | Purity/Initial purity (%) ([1]; 24 hours, 80° C. (sealed)) | Purity (Area %) ([1]; 24 hours, 80° C. (sealed)) | Form ([1]; 24 hours, 80° C. (sealed)) | decrease of HPLC purity [1] | Purity (Area %) ([1]; Initial) | water uptake ([3]; 25° C./80% RH) [%] | Purity/Initial purity (%) [4, 9] [%] | Purity (Area %) [4, 9] [Area %] | Crystal Form [4, 9] | Purity/Initial purity (%) [4, 10] [%] | Purity (Area %) [4, 10] [Area %] | Crystal Form [4, 10] | Purity (Area %) ([4]; Initial) | also measured
COc1ccc2cc3[n+](cc2c1OC)CCc1cc2c(cc1-3)OCO2.C[C@H](CCC(=O)[O-])[C@H]1CC[C@H]2[C@@H]3[C@@H](O)C[C@@H]4C[C@H](O)CC[C@]4(C)[C@H]3CC[C@]12C [Form A, berberine ursodeoxycholate] | 99.9 | 99.4 | Form A | 99.8 | 99.4 | Form A | 99.8 | 99.3 | Form A | no HPLC purity decrease | 99.5 | 9.9 | 99.8 | 99.3 | Form A | 99.9 | 99.4 | Form A | 99.5 | Form of residual solid ([2]; water, RT, 24 hours slurry, XRPD, listed as Type A): Type A; Solubility of BBR ([2]; water, RT, 24 hours, DAD as detector): 350 µg/mL; Solubility of BBR [2, 8]: 330 µg/mL; Solubility of UDCA [2, 8]: 420 µg/mL; crystal-form change after DVS (XRPD) ([3]; 25° C., 60% RH-95% RH-0% RH-95% RH): no crystal-form change
COc1ccc2cc3[n+](cc2c1OC)CCc1cc2c(cc1-3)OCO2.C[C@H](CCC(=O)[O-])[C@H]1CC[C@H]2[C@@H]3[C@@H](O)C[C@@H]4C[C@H](O)CC[C@]4(C)[C@H]3CC[C@]12C [Form D, berberine ursodeoxycholate] | 99.3 | 98.9 | Form D* | 98.3 | 97.9 | Form D* | 99.5 | 99.0 | Form D | 0.5-1.7 area % | 99.6 | 4.1 | 97.6 | 97.2 | Form D | 95.1 | 94.7 | Form D | 99.6 | crystal-form change (XRPD) ([1]; all three conditions: 80° C. sealed 24 hours, 25° C./60% RH open and 40° C./75% RH open one week): no crystal-form change; Solubility of UDCA [2]: 520 µg/mL; molar ratio (BBR:UDCA) [2]: 0.93:1; behaviour in high humidity (DVS) ([3]; 25° C., over 90% RH): deliquesced in high humidity; water uptake ([3]; 25° C., 95% RH): 24.5%; crystal-form change (XRPD) ([4]; 25° C./60% RH (sealed) and 40° C./75% RH (sealed), one month): No crystal-form change
COc1ccc2cc3[n+](cc2c1OC)CCc1cc2c(cc1-3)OCO2.C[C@H](CCC(=O)[O-])[C@H]1CC[C@H]2[C@@H]3[C@@H](O)C[C@@H]4C[C@H](O)CC[C@]4(C)[C@H]3CC[C@]12C [Form J, berberine ursodeoxycholate] |  |  |  |  |  |  |  |  |  |  |  |  |  |  |  |  |  |  |  | form conversion [5]: converts to Form A
COc1ccc2cc3[n+](cc2c1OC)CCc1cc2c(cc1-3)OCO2.C[C@H](CCC(=O)[O-])[C@H]1CC[C@H]2[C@@H]3[C@@H](O)C[C@@H]4C[C@H](O)CC[C@]4(C)[C@H]3CC[C@]12C [Mixed crystal, berberine ursodeoxycholate] |  |  |  |  |  |  |  |  |  |  |  |  | 91.7 | 90.8 | Mixed | 89.6 | 88.7 | Mixed | 99.0 | 
